Measured values reported in BigSolDB 2.1.

O=C1CCC(=O)CC1
solubility (mole fraction)
Conditions | in acetone | in acetonitrile | in cyclohexane | in ethanol | in ethyl acetate | in isopropanol | in methanol | in methyl acetate | in n-butanol | in n-propanol
278.15 K | 0.177 | 0.241 | – | 0.0215 | 0.093 | 0.018 | 0.112 | 0.156 | 0.0113 | 0.0096
283.15 K | 0.21 | 0.273 | 0.000676 | 0.0301 | 0.117 | 0.0274 | 0.141 | 0.188 | 0.0181 | 0.0162
288.15 K | 0.248 | 0.311 | 0.000868 | 0.0479 | 0.146 | 0.0414 | 0.174 | 0.227 | 0.0293 | 0.0253
293.15 K | 0.29 | 0.35 | 0.00111 | 0.0777 | 0.179 | 0.0681 | 0.221 | 0.27 | 0.0436 | 0.0409
298.15 K | 0.338 | 0.391 | 0.00141 | 0.121 | 0.223 | 0.107 | 0.266 | 0.321 | 0.0654 | 0.0638
303.15 K | 0.391 | 0.434 | 0.00182 | 0.183 | 0.271 | 0.165 | 0.324 | 0.377 | 0.0954 | 0.0996
308.15 K | 0.454 | 0.481 | 0.00234 | 0.265 | 0.332 | 0.254 | 0.393 | 0.441 | 0.145 | 0.157
313.15 K | 0.52 | 0.533 | 0.00293 | 0.375 | 0.404 | 0.36 | 0.461 | 0.515 | 0.222 | 0.24
